3 molecules from patent publication US12459891B2, “1-[1-(4-benzyloxy-3,5-difluoro-benzoyl)-4-fluoro-pyrrolidine-2-carbonyl]-pyrrolidine-2-carbonitrile” (ACCURE THERAPEUTICS, S.L., priority 2020, dated 2025) can be followed below.

The nature of data set [1]: PK in mice after intravenous bolus. In kind it is in vivo. The following applies: male, Swiss Albino, mouse, plasma, 1 mg/kg intravenous bolus; for Vd: read-out: Vss. On the procedure:
The pharmacokinetics of the compounds following intravenous bolus administration was conducted in male Swiss Albino mice. The study was conducted in accordance with the guidelines of the Institutional Animal Ethics Committee (IAEC) and in accordance with the requirements of Committee for the Purpose of Control and Supervision of Experiments on Animals (CPCSEA), India.
Study was conducted in 12 mice per compound using sparse sampling design (n=3/time point) to produce composite profile. The compounds were dissolved in 2% Twee80® in saline (0.9 NaCl) at a concentration of 0.5 mg/mL. Mice were administered a single dose of 1 mg/kg of the compound solution by intravenous bolus through lateral tail vein using 1 mL BD syringe guided with 26G needle at a dose volume of 2 mL/kg.
Blood samples were collected (n=3 per time point) at 0.083, 0.25, 0.5, 1, 2, 4, 6, 8, 24 and 48 h post-dose. At each time point, 120 μL of blood was collected by retro orbital plexus puncture and transferred into a labeled microfuge tube containing 200 mM K2EDTA solution (20 μL per mL of blood). The blood samples were centrifuged at 5000×g for 5 min at 4±2° C. Plasma samples were stored below −60° C. until bioanalysis.
Plasma samples were analyzed using a LC-MS/MS method with LLOQ of 1.06 ng/mL. Pharmacokinetic parameters in plasma were calculated using the non-compartmental analysis tool of the validated Phoenix WinNonlin® software (version 6.3). The area under the concentration time curve (AUClast) was calculated by linear trapezoidal rule. Peak plasma concentration (Cmax) and time to reach the peak plasma concentration (Tmax) were the observed values. Clearance (CL) and volume of distribution (Vss) were predicted values.

The nature of data set [2]: Parallel artificial membrane permeability assay (PAMPA), BBB passive diffusion. Particulars: pH 7.4, 4 hours; for % R (compound retention of the phospholipid membrane), PAMPA / % T (percentage of transport), PAMPA: 200 μM; for Papp at 4 h, 200 μM: pig, PAMPA, room temperature, read-out: Effective permeability Pe. In kind it is in vitro ADME. On the procedure: Parallel artificial membrane permeability assay (PAMPA) described in Kansy M et al., J. Med. Chem. 1998; 41(7):1007-10 was used to determine the capacity of compounds to cross the Blood-Brain Barrier (BBB) by passive diffusion (Di L et al., Eur. J. Med. Chem. 2003; 38(3):223-32). The effective permeability (Pe) of the compounds was measured at an initial concentration of 200 μM. The buffer solution was prepared from a commercial concentrated one following the manufacturer's instructions. pH was adjusted to 7.4 using a 0.5 M NaOH solution. A stock solution of new compound was prepared in DMSO and diluted with buffer solution to a final 200 μM concentration (0.5% DMSO content). The PAMPA sandwich was separated and each donor well was filled with 200 μL of the compound solution. The acceptor plate was placed into the donor plate, ensuring that the underside of the membrane was in contact with buffer. 4 μL of the mixture of phospholipids (20 mg/mL) in dodecane was added to the filter of each well, and 200 μL of buffer solution was added to the each acceptor well. The plate was covered and incubated at room temperature in a saturated humidity atmosphere for 4 hours under orbital agitation at 100 rpm. After 4 hours, the contents of the acceptor and donor compartments were analyzed by HPLC: 150 μL of each well from the donor plate and 150 μL of each well from the acceptor plate were transferred to HPLC vials, injecting each sample into a reverse-phase C18 column (150 mm×4.6 mm×5 μm, 100 Å) (100 μL/injection from the acceptor wells, 10 μL/injection from the donor wells and for t0 references). Transport was also confirmed by MALDI-TOF spectrometry.
The phospholipid mixture used was a porcine polar brain lipid extract, provided by Avanti polar lipids, with the following composition: 12.6% phosphatidylcholine (PC), 33.1% phosphatidylethanolamine (PE), 18.5% phosphatidylserine (PS), 4.1% phosphatidylinositol (PI), 0.8% phosphatidic acid and 30.9% of other compounds.
The effective permeability (Pe) after 4 hours was calculated using equation 2, the percentage of transport (T %) was calculated using equation 3 and the compound retention (R %) of the phospholipid membrane using equation 4:
[formula] [formula] [formula] wherein: • t is time (h) • CA(t) is the compound concentration in the acceptor well at time t, CD(t) is the compound concentration in donor well at time t • and CD(t0) is the compound concentration in the donor well at t0.
Background: In PAMPA a lipid-coated filter parts donor from acceptor wells.

Data set [3] can be described thus: Microsomal stability (rat). It counts as in vitro ADME. Particulars: Sprague-Dawley, pooled liver microsomes, pH 7.4; rat liver microsomes 0.5 mg/mL, 1 μM compound, 37° C., NADPH regenerating system. On the procedure:
The stability of the compounds in rat (Sprague-Dawley) pooled liver microsomes (catalog number 452501) was investigated according to the instructions provided by the vendor (BD Bioscience). A stock solution (500 μM) of the compound to be tested was prepared in DMSO. Two μL of the compounds were incubated at 1 μM final concentration in a mixture of: • 713 μL of H2O • 200 μL of 0.5 M potassium phosphate (pH 7.4) • 50 μL of NADPH regenerating system solution A (BD Bioscience, catalog number 451220) • 10 μL of NADPH regenerating system solution B (BD Bioscience, catalog number 451200)
The resulting mixture was warmed to 37° C. for 5 min. After which, 25 μL of liver microsomes were added at a final concentration of 0.5 mg/mL. The mixture was incubated at 37° C. with orbital agitation (100 rpm). At selected time points, 100 μL aliquots were extracted and mixed with 100 μL of acetonitrile. The obtained precipitate was shake in a vortex for 1 minute. Samples were kept at 4° C. for 30 min, after which, samples were centrifuged at 20,000×g at 4° C. for 30 min. The supernatant was filtered out and subsequently analysed by UPLC-MS. All stability tests were performed in duplicates.
Background: Liver microsomes are a subcellular fraction often used to study metabolism.

Broadly, the AUC(0-t) is exposure summed from dosing to a finite time, without extrapolation to infinity. What is called clearance is the volume of plasma or blood freed of the substance per unit of time. Low readings indicate a low capacity for elimination, high ones a high capacity for elimination. What is called half-life is the time in which the quantity being followed falls by half. As to `COc1cc(C(=O)N2CC(F)(F)C[C@H]2C(=O)N2CCC[C@H]2C#N)cc(OC)c1OCc1ccccc1` [Comp Ex. 3, (S)-1-((2S)-1-(4-(benzyloxy)-3,5-dimethoxybenzoyl)-4,4-difluoropyrrolidine-2-carbonyl)pyrrolidine-2-carbonitrile], in data set [1], the AUC(0-t) was 131 ng·h/mL, the clearance was found to be 126 mL/min/kg and the Vd was 0.64 L/kg. In data set [2], the “% R (compound retention of the phospholipid membrane), PAMPA” value amounted to 10.93%; the “% T (percentage of transport), PAMPA” value came out at 29.92%; the Papp at 4 h, 200 μM came to 22.1 ×10⁻⁶ cm/s. This molecule returned a half-life at 1 μM in data set [3] below 5 min.

For the molecule `N#C[C@@H]1CCCN1C(=O)[C@@H]1C[C@@H](F)CN1C(=O)c1cc(F)c(OCc2ccccc2)c(F)c1` [Example 1, (S)-1-((2S,4R)-1-(4-(benzyloxy)-3,5-difluorobenzoyl)-4-fluoropyrrolidine-2-carbonyl)pyrrolidine-2-carbonitrile], in data set [1], the AUC(0-t) stood at 127 ng·h/mL, the clearance was 99.6 mL/min/kg and the Vd turned out to be 1.19 L/kg. Moreover, in data set [2], the “% R (compound retention of the phospholipid membrane), PAMPA” value is reported as 24%; the “% T (percentage of transport), PAMPA” value was found to be 18.1%; the Papp at 4 h, 200 μM was 4.7 ×10⁻⁶ cm/s. The molecule further registered a half-life at 1 μM in data set [3] of 12 min.

As to `N#C[C@@H]1CCCN1C(=O)[C@@H]1CC(F)(F)CN1C(=O)c1ccc(OCc2ccccc2)c(F)c1` [Comp Ex. 4, (S)-1-((S)-1-(4-(benzyloxy)-3-fluorobenzoyl)-4,4-difluoropyrrolidine-2-carbonyl) pyrrolidine-2-carbonitrile], in data set [1], the AUC(0-t) was 22.7 ng·h/mL, the clearance was 697 mL/min/kg and the Vd turned out to be 9.06 L/kg. In addition, the “% T (percentage of transport), PAMPA” value in data set [2] is recorded as 10.43%. The molecule further gave a half-life at 1 μM in data set [3] below 5 min.
